Laboratory results: US5250542A, “Peripherally selective piperidine carboxylate opioid antagonists” (Eli Lilly and Company, priority 1992, dated 1993)
Where a name gives a salt, the structure may show the parent alone. Read-outs that look alike come from different tables or passages of the source.

Assays:
opioid receptor = target: T1, opioid receptor (Mus musculus, UniProt P42866); experiment: mouse writhing analgesis test: block of morphine-induced analgesia; type: in vivo, CF-1 male mice; set-up: unit not given here; conditions: dose of antagonist that reduced the inhibition of writhing produced by 1.25 mg/kg morphine sulfate to 50%; subcutaneous, 20 min before acetic acid
T1 construct: Five CF-1 male mice (Charles River, Portage, Mich.); from tissue; host or cells: living CF-1 male mice (in vivo test; endogenous receptor)
T1 sequence (P42866 whole entry): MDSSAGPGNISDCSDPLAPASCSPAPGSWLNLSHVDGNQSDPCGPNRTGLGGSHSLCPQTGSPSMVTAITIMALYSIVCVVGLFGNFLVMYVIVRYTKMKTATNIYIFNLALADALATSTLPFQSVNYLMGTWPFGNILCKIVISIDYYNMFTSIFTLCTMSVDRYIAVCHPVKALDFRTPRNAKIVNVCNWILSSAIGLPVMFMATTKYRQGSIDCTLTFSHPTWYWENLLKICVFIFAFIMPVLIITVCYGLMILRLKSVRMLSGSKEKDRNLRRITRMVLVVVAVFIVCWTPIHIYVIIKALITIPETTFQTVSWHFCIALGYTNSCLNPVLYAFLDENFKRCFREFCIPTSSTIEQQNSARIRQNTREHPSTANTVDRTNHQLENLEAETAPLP
Summary of the method: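 Male CF-1 mice (~20 g, fasted overnight, n=5) dosed subcutaneously 20 min before i.p. 0.6% acetic acid; writhes counted for 10 min starting 5 min post-injection. Antagonism measured as blockade of morphine-induced inhibition of writhing, percent versus vehicle controls; ED50 defined as 50% writhing inhibition.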

[1] = target: T2, peripheral opioid receptors (Mus musculus, UniProt P42866); experiment: precipitated diarrhea in morphine-maintained mice (peripheral opioid activity) and comparison with the writhing test; type: in vivo; conditions: for Ratio (AD50 mouse writhing test / ED50 mouse diarrhea test): higher ratio = greater relative antagonism of peripheral opioid receptors; for ED50: mouse, 0.5 h, morphine-maintained mice, antagonist subcutaneous or oral, 30 min observation
T2 construct: Mice maintained (6 mice/cage) on 0.01M saccharin water with 1 g/1 morphine sulfate; from tissue; host or cells: living morphine-maintained mice (in vivo test; endogenous receptor)
T2 sequence (P42866 whole entry): as above
Summary of the method: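 Morphine-dependent mice (1 g/l morphine sulfate in drinking water ≥10 days, withdrawn 45 min before dosing) received antagonist subcutaneously or orally, 5 mice/dose. Diarrhea (and jumping) were scored over 30 min and doses lowered to find the diarrhea threshold. Peripheral selectivity was taken as writhing AD50 divided by diarrhea ED50.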

mu receptor = target: T3, mu receptor (Rattus norvegicus, UniProt P33535); experiment: opioid receptor binding assay, [3H] NAL (tritiated naloxone), mu receptor; set-up: species or system rat (Male Sprague Dawley), brain minus cerebellum; conditions: for inhibition at 0.01 µM / inhibition at 0.1 µM: 20 min
T3 construct: rat whole brain minus cerebellum for mu was homogenized; from tissue; host or cells: brain of male Sprague Dawley rats, whole brain minus cerebellum, homogenate fraction
T3 sequence (P33535 whole entry): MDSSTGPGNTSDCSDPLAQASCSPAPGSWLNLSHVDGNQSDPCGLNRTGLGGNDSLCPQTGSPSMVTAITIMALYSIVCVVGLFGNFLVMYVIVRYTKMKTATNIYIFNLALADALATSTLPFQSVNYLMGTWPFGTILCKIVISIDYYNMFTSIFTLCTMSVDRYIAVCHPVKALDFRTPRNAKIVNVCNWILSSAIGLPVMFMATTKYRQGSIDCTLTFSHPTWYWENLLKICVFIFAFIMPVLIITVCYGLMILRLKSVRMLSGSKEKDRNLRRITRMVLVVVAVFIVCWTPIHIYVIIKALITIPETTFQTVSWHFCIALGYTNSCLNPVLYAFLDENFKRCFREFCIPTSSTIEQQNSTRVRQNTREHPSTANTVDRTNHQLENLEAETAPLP
Summary of the method: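 Displacement of [3H]naloxone was measured on rat whole brain minus cerebellum membranes, preincubated 20 min and incubated 20 min at 37° C, with filtration separating bound ligand. Ki was derived from IC50 and ligand KD. Percent displacement was also recorded at 10 nM and 100 nM test compound.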

[2] = 10 nM test compound, [3H] naloxone 0.5 nM, read-out: % displacement at 10 nM
[3] = 100 nM test compound, [3H] naloxone 0.5 nM, read-out: % displacement at 100 nM
[4] = read-out: % displacement at 10 nM, 10 nM test compound, [3H] naloxone 0.5 nM
[5] = read-out: % displacement at 100 nM, 100 nM test compound, [3H] naloxone 0.5 nM

C[C@H]1CN(CC(Cc2ccccc2)C(=O)NCC(=O)OCC(=O)N(C)C)CC[C@@]1(C)c1cccc(O)c1 (relative stereo) [Example 90]
AD50 (opioid receptor): 2.2
Ratio (AD50 mouse writhing test / ED50 mouse diarrhea test) [1]: 22
ED50 [1]: 0.1 mg/kg
inhibition at 0.01 µM (mu receptor; [2]): 93%
inhibition at 0.1 µM (mu receptor; [3]): 99%

C[C@H]1CN(CC(CC2CCCCC2)C(=O)NCC(=O)O)CC[C@@]1(C)c1cccc(O)c1 (relative stereo) [Example 30, 2-[[3-[4-(3-hydroxyphenyl)-3,4-dimethyl-1-piperidinyl]-2-(cyclohexylmethyl)-1-oxopropyl]-amino]acetic acid monohydrate]
AD50 (opioid receptor): > 40
Ratio (AD50 mouse writhing test / ED50 mouse diarrhea test) [1]: > 2353
ED50 [1]: 0.017 mg/kg
Ki (mu receptor): 0.42 nM
inhibition at 0.01 µM (mu receptor; [4]): 89%
inhibition at 0.1 µM (mu receptor; [5]): 93%

CCCCCOC(=O)CNC(=O)C(Cc1ccccc1)CN1CC[C@@](C)(c2cccc(O)c2)[C@@H](C)C1 (relative stereo) [Example 86]
AD50 (opioid receptor): > 40
Ratio (AD50 mouse writhing test / ED50 mouse diarrhea test) [1]: > 2353
ED50 [1]: 0.017 mg/kg
inhibition at 0.01 µM (mu receptor; [2]): 74%
inhibition at 0.1 µM (mu receptor; [3]): 91%

CCOC(=O)CN(C)C(=O)C(Cc1ccccc1)CN1CC[C@@](C)(c2cccc(O)c2)[C@@H](C)C1 (some centres unmarked) [Example 65, [[2-[[4-(3-hydroxyphenyl)-3,4-dimethyl-1-piperidinyl]methyl]-1-oxo-3-phenylpropyl]-methylamino]acetic acid ethyl ester monohydrochloride]
AD50 (opioid receptor): 2.8
Ratio (AD50 mouse writhing test / ED50 mouse diarrhea test) [1]: 3
ED50 [1]: 0.92 mg/kg
inhibition at 0.01 µM (mu receptor; [2]): 57%
inhibition at 0.1 µM (mu receptor; [3]): 95%

C[C@H]1CN(CC(Cc2ccccc2)C(=O)N(C)CC(=O)O)CC[C@@]1(C)c1cccc(O)c1 (relative stereo) [Example 66, [[2-[[4-(3-hydroxyphenyl)-3,4-dimethyl-1-piperidinyl]methyl]-1-oxo-3-phenylpropyl]-methylamino]acetic acid monohydrate]
AD50 (opioid receptor): 14.0
Ratio (AD50 mouse writhing test / ED50 mouse diarrhea test) [1]: < 4.7
ED50 [1]: < 3 mg/kg
Ki (mu receptor): 1.96 nM
inhibition at 0.01 µM (mu receptor; [4]): 70%
inhibition at 0.1 µM (mu receptor; [5]): 85%

CCOC(=O)CCNC(=O)C(CC1CCCCC1)CN1CC[C@@](C)(c2cccc(O)c2)[C@@H](C)C1 (some centres unmarked) [Example 36, 3-[[2-(cyclohexylmethyl)-3-[4-(3-hydroxyphenyl)-3,4-dimethyl-1-piperidinyl]-1-oxo-propyl]amino]propanoic acid ethyl ester monohydrochloride]
AD50 (opioid receptor): 3.8
Ratio (AD50 mouse writhing test / ED50 mouse diarrhea test) [1]: 12
ED50 [1]: 0.32 mg/kg
Ki (mu receptor): 0.47 nM
inhibition at 0.01 µM (mu receptor; [4]): 79%
inhibition at 0.1 µM (mu receptor; [5]): 86%

CCOC(=O)C(Cc1ccccc1)CN1CC[C@@](C)(c2cccc(OC)c2)[C@@H](C)C1 (single isomer, unassigned) [Example 78B]
AD50 (opioid receptor): 1.6
Ratio (AD50 mouse writhing test / ED50 mouse diarrhea test) [1]: 29
ED50 [1]: 0.055 mg/kg
inhibition at 0.01 µM (mu receptor; [2]): 0%
inhibition at 0.1 µM (mu receptor; [3]): 2%

C[C@H]1CN(CC(CC2CCCCC2)C(=O)NCCC(N)=O)CC[C@@]1(C)c1cccc(O)c1 (some centres unmarked) [Example 38, 3-[[1-oxo-2-cyclohexylmethyl)-3-[4-(3-hydroxyphenyl)-3,4-dimethyl-1-piperidinyl]propyl]-amino]propanamide hydrochloride]
AD50 (opioid receptor): > 40
Ratio (AD50 mouse writhing test / ED50 mouse diarrhea test) [1]: > 667
ED50 [1]: 0.06 mg/kg
Ki (mu receptor): 0.48 nM
inhibition at 0.01 µM (mu receptor; [4]): 98%
inhibition at 0.1 µM (mu receptor; [5]): 99%

C[C@H]1CN(CCC(C(=O)NCC(=O)O)c2ccccc2)CC[C@@]1(C)c1cccc(O)c1 (relative stereo) [Example 12, 2-[[4-[4-(3-hydroxyphenyl)-3,4-dimethyl-1-piperidinyl]-2-phenyl-1-oxobutyl]amino]ethanoic acid monohydrate]
AD50 (opioid receptor): 40
Ratio (AD50 mouse writhing test / ED50 mouse diarrhea test) [1]: 2667
ED50 [1]: 0.015 mg/kg
Ki (mu receptor): 1.89 nM
inhibition at 0.01 µM (mu receptor; [4]): 84%
inhibition at 0.1 µM (mu receptor; read-out: % displacement at 100 nM): 94%
